Assay: xn = mol fraction of the nth substance listed

C1CCCCC1 + CCCCCC
Conditions	viscosity [mPa·s]
298.1 K, 101 kPa, x1 = 0.2	0.356
298.1 K, 101 kPa, x1 = 0.4	0.409
298.1 K, 101 kPa, x1 = 0.5	0.442
298.1 K, 101 kPa, x1 = 0.6	0.484
298.1 K, 101 kPa, x1 = 0.8	0.609
298.15 K, 100 kPa, x1 = 0.201	0.34
298.15 K, 100 kPa, x1 = 0.4	0.4016
298.15 K, 100 kPa, x1 = 0.6	0.4934
298.15 K, 100 kPa, x1 = 0.8	0.6328
298.15 K, 101 kPa, x2 = 0.0684	0.791
298.15 K, 101 kPa, x2 = 0.1504	0.6857
298.15 K, 101 kPa, x2 = 0.212	0.6386
298.15 K, 101 kPa, x2 = 0.2942	0.5608
298.15 K, 101 kPa, x2 = 0.3691	0.5182
298.15 K, 101 kPa, x2 = 0.4469	0.4531
298.15 K, 101 kPa, x2 = 0.5365	0.4026
298.15 K, 101 kPa, x2 = 0.5903	0.3809
298.15 K, 101 kPa, x2 = 0.6702	0.3605
298.15 K, 101 kPa, x2 = 0.7634	0.3153
298.15 K, 101.33 kPa, x1 = 0.0907	0.3272
298.15 K, 101.33 kPa, x1 = 0.0958	0.317
298.15 K, 101.33 kPa, x1 = 0.1714	0.3405
298.15 K, 101.33 kPa, x1 = 0.1981	0.341
298.15 K, 101.33 kPa, x1 = 0.274	0.3831
298.15 K, 101.33 kPa, x1 = 0.2742	0.367
298.15 K, 101.33 kPa, x1 = 0.2966	0.367
298.15 K, 101.33 kPa, x1 = 0.3645	0.4001
298.15 K, 101.33 kPa, x1 = 0.3986	0.397
298.15 K, 101.33 kPa, x1 = 0.4469	0.4276
298.15 K, 101.33 kPa, x1 = 0.4498	0.4234
298.15 K, 101.33 kPa, x1 = 0.4972	0.436
298.15 K, 101.33 kPa, x1 = 0.533	0.4643
298.15 K, 101.33 kPa, x1 = 0.5873	0.4846
298.15 K, 101.33 kPa, x1 = 0.5972	0.484
298.15 K, 101.33 kPa, x1 = 0.6062	0.5023
298.15 K, 101.33 kPa, x1 = 0.6783	0.5445
298.15 K, 101.33 kPa, x1 = 0.6988	0.544
298.15 K, 101.33 kPa, x1 = 0.752	0.5887
298.15 K, 101.33 kPa, x1 = 0.7542	0.5997
298.15 K, 101.33 kPa, x1 = 0.7993	0.623
298.15 K, 101.33 kPa, x1 = 0.8297	0.6872
298.15 K, 101.33 kPa, x1 = 0.8977	0.73
298.15 K, 101.33 kPa, x1 = 0.9016	0.7533
298.15 K, 101.33 kPa, x1 = 0.9034	0.7347
298.15 K, 101.33 kPa, x1 = 0.9721	0.8499
303.15 K, 101 kPa, x1 = 0.1086	0.2975
303.15 K, 101 kPa, x1 = 0.2169	0.3225
303.15 K, 101 kPa, x1 = 0.3006	0.3441
303.15 K, 101 kPa, x1 = 0.4057	0.3765
303.15 K, 101 kPa, x1 = 0.5025	0.4141
303.15 K, 101 kPa, x1 = 0.6021	0.4621
303.15 K, 101 kPa, x1 = 0.7058	0.5242
303.15 K, 101 kPa, x1 = 0.7982	0.5925
303.15 K, 101 kPa, x1 = 0.8984	0.6941
303.15 K, 101.33 kPa, x1 = 0.0958	0.301
303.15 K, 101.33 kPa, x1 = 0.1981	0.324
303.15 K, 101.33 kPa, x1 = 0.2966	0.349
303.15 K, 101.33 kPa, x1 = 0.3986	0.378
303.15 K, 101.33 kPa, x1 = 0.4972	0.412
303.15 K, 101.33 kPa, x1 = 0.5972	0.454
303.15 K, 101.33 kPa, x1 = 0.6988	0.511
303.15 K, 101.33 kPa, x1 = 0.7993	0.58
303.15 K, 101.33 kPa, x1 = 0.8977	0.672
308.15 K, 101.33 kPa, x1 = 0.0958	0.288
308.15 K, 101.33 kPa, x1 = 0.1981	0.307
308.15 K, 101.33 kPa, x1 = 0.2966	0.33
308.15 K, 101.33 kPa, x1 = 0.3986	0.357
308.15 K, 101.33 kPa, x1 = 0.4972	0.389
308.15 K, 101.33 kPa, x1 = 0.5972	0.428
308.15 K, 101.33 kPa, x1 = 0.6988	0.479
308.15 K, 101.33 kPa, x1 = 0.7993	0.543
308.15 K, 101.33 kPa, x1 = 0.8977	0.623
323.15 K, 100 kPa, x1 = 0.201	0.266
323.15 K, 100 kPa, x1 = 0.4	0.309
323.15 K, 100 kPa, x1 = 0.6	0.3703
323.15 K, 100 kPa, x1 = 0.8	0.4573
